According to patent US6355799B1, “Substituted benzene compounds, process for their preparation, and herbicidal and defoliant compositions containing them” (ISK Americas Incorporated, priority 1997, dated 2002):

What was measured:
Type in all cases: in vivo
[1] = test system: redroot pigweed (Amaranthus retroflexus, AMARE); experiment: Pre-emerge test, greenhouse herbicide activity screening; conditions: pre-emerge, 14 days after application, scale 0-100
Procedure, shortened: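 Rating: 0–100 visual injury, 14 DAA. Application: acetone, 187 l/ha, 15–1000 g ai/ha, flat-fan track sprayer with nozzle 40–45 cm above soil or canopy. Post-emerge runs used 0.25% v/v surfactant on 2–3 leaf plants.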

[2] = test system: barnyardgrass (Echinochloa crus-galli, ECHCG); experiment: as above; conditions: pre-emerge, 14 days after application, scale 0-100
Procedure, shortened: (§1)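 Visual ratings on a 0-100 scale (0 no damage, 100 all plants dead) were taken at 14 days after treatment. Rates of 15-1000 g ai/ha in acetone, 187 l/ha, were sprayed onto soil one day after planting (pre-emerge) or onto 2-3 leaf plants with 0.25% v/v surfactant (post-emerge).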

[3] = test system: green foxtail (Setaria viridis, SETVI); experiment: as above; conditions: pre-emerge, 14 days after application, scale 0-100
Procedure, shortened: as §1

[4] = test system: ivyleaf morningglory (Ipomoea hederacea, IPOHE); experiment: as above; conditions: pre-emerge, 14 days after application, scale 0-100
Procedure, shortened: as §1

[5] = test system: johnsongrass (Sorghum halepense, SORHA); experiment: as above; conditions: pre-emerge, 14 days after application, scale 0-100
Procedure, shortened: as §1

[6] = test system: lambsquarters (Chenopodium album, CHEAL); experiment: as above; conditions: pre-emerge, 14 days after application, scale 0-100
Procedure, shortened: as §1

[7] = test system: large crabgrass (Digitaria sanguinalis, DIGSA); experiment: as above; conditions: pre-emerge, 14 days after application, scale 0-100
Procedure, shortened: as §1

[8] = test system: sicklepod (Cassia obtusifolia, CASOB); experiment: as above; conditions: pre-emerge, 14 days after application, scale 0-100
Procedure, shortened: as §1

[9] = test system: velvetleaf (Abutilon theophrasti, ABUTH); experiment: as above; conditions: pre-emerge, 14 days after application, scale 0-100
Procedure, shortened: as §1

[10] = test system: field corn (Zea mays L., var. Dekalb 535, CORN); experiment: Pre-emerge test, crop safety; conditions: pre-emerge, 14 days after application, scale 0-100
Procedure, shortened: (§2)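 Plants grown in 10 cm pots of sandy loam mix received acetone-dissolved compounds through a moving flat-fan nozzle. Doses ranged from 15 to 1000 g ai/ha. Pre-emerge pots were seeded one day earlier, post-emerge pots 8–21 days earlier. Fourteen days on, each pot was graded 0–100 for damage.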

[11] = test system: upland rice (Oryza sp., var. Tebonnet, RICE); experiment: Pre-emerge test, crop safety; conditions: pre-emerge, 14 days after application, scale 0-100
Procedure, shortened: as §2

[12] = test system: barnyardgrass (Echinochloa crus-galli, ECHCG); experiment: Post-emerge test, greenhouse herbicide activity screening; conditions: post-emerge, 14 days after application, rating scale 0-100
Procedure, shortened: (§3)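 Herbicidal damage is scored 0 (none) to 100 (complete plant death) two weeks after a simulated field spray. Rates span 15–1000 g ai/ha, delivered in acetone at 187 l/ha. For post-emergence treatments, plants have 2–3 leaves and the spray carries 0.25% v/v non-ionic surfactant.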

[13] = test system: green foxtail (Setaria viridis, SETVI); experiment: as above; conditions: post-emerge, 14 days after application, rating scale 0-100
Procedure, shortened: as §3

[14] = test system: ivyleaf morningglory (Ipomoea hederacea, IPOHE); experiment: as above; conditions: post-emerge, 14 days after application, rating scale 0-100
Procedure, shortened: as §3

[15] = test system: johnsongrass (Sorghum halepense, SORHA); experiment: as above; conditions: post-emerge, 14 days after application, rating scale 0-100
Procedure, shortened: as §3

[16] = test system: lambsquarters (Chenopodium album, CHEAL); experiment: as above; conditions: post-emerge, 14 days after application, rating scale 0-100
Procedure, shortened: as §3

[17] = test system: large crabgrass (Digitaria sanguinalis, DIGSA); experiment: as above; conditions: post-emerge, 14 days after application, rating scale 0-100
Procedure, shortened: as §3

[18] = test system: redroot pigweed (Amaranthus retroflexus, AMARE); experiment: as above; conditions: post-emerge, 14 days after application, rating scale 0-100
Procedure, shortened: as §3

[19] = test system: sicklepod (Cassia obtusifolia, CASOB); experiment: as above; conditions: post-emerge, 14 days after application, rating scale 0-100
Procedure, shortened: as §3

[20] = test system: velvetleaf (Abutilon theophrasti, ABUTH); experiment: as above; conditions: post-emerge, 14 days after application, rating scale 0-100
Procedure, shortened: as §3

[21] = test system: field corn (Zea mays L., var. Dekalb 535, CORN); experiment: Post-emerge test, crop safety; conditions: post-emerge, 14 days after application, rating scale 0-100
Procedure, shortened: as §1

[22] = test system: upland rice (Oryza sp., var. Tebonnet, RICE); experiment: Post-emerge test, crop safety; conditions: post-emerge, 14 days after application, rating scale 0-100
Procedure, shortened: as §1

Question: Which results are given for `COc1c(Cl)cc(F)c(-n2c(=O)cc(C(F)(F)F)n(C)c2=O)c1NC(=O)c1c(C)cccc1C` [2-124]?
Answer: phytotoxicity rating AMARE ([1]; 63 g ai/ha): 40; phytotoxicity rating AMARE ([1]; 250 g ai/ha): 100; phytotoxicity rating ECHCG ([2]; 63 g ai/ha): 0; phytotoxicity rating ECHCG ([2]; 250 g ai/ha): 0; phytotoxicity rating SETVI ([3]; 63 g ai/ha): 0; phytotoxicity rating SETVI ([3]; 250 g ai/ha): 10; phytotoxicity rating IPOHE ([4]; 63 g ai/ha): 0; phytotoxicity rating IPOHE ([4]; 250 g ai/ha): 20; phytotoxicity rating SORHA ([5]; 63 g ai/ha): 0; phytotoxicity rating SORHA ([5]; 250 g ai/ha): 0; phytotoxicity rating CHEAL ([6]; 63 g ai/ha): 20; phytotoxicity rating CHEAL ([6]; 250 g ai/ha): 80; phytotoxicity rating DIGSA ([7]; 63 g ai/ha): 0; phytotoxicity rating DIGSA ([7]; 250 g ai/ha): 0; phytotoxicity rating CASOB ([8]; 63 g ai/ha): 0; phytotoxicity rating CASOB ([8]; 250 g ai/ha): 20; phytotoxicity rating ABUTH ([9]; 63 g ai/ha): 0; phytotoxicity rating ABUTH ([9]; 250 g ai/ha): 80; phytotoxicity rating CORN (crop damage) ([10]; 63 g ai/ha): 0; phytotoxicity rating CORN (crop damage) ([10]; 250 g ai/ha): 0; phytotoxicity rating RICE (crop damage) ([11]; 63 g ai/ha): 0; phytotoxicity rating RICE (crop damage) ([11]; 250 g ai/ha): 10; ECHCG phytotoxicity rating ([12]; 63 g ai/ha): 0; ECHCG phytotoxicity rating ([12]; 250 g ai/ha): 0; SETVI phytotoxicity rating ([13]; 63 g ai/ha): 0; SETVI phytotoxicity rating ([13]; 250 g ai/ha): 0; IPOHE phytotoxicity rating ([14]; 63 g ai/ha): 20; IPOHE phytotoxicity rating ([14]; 250 g ai/ha): 30; SORHA phytotoxicity rating ([15]; 63 g ai/ha): 0; SORHA phytotoxicity rating ([15]; 250 g ai/ha): 0; CHEAL phytotoxicity rating ([16]; 63 g ai/ha): 30; CHEAL phytotoxicity rating ([16]; 250 g ai/ha): 50; DIGSA phytotoxicity rating ([17]; 63 g ai/ha): 0; DIGSA phytotoxicity rating ([17]; 250 g ai/ha): 0; AMARE phytotoxicity rating ([18]; 63 g ai/ha): 30; AMARE phytotoxicity rating ([18]; 250 g ai/ha): 90; CASOB phytotoxicity rating ([19]; 63 g ai/ha): 0; CASOB phytotoxicity rating ([19]; 250 g ai/ha): 20; ABUTH phytotoxicity rating ([20]; 63 g ai/ha): 40; ABUTH phytotoxicity rating ([20]; 250 g ai/ha): 95; CORN phytotoxicity rating (crop damage) ([21]; 63 g ai/ha): 0; CORN phytotoxicity rating (crop damage) ([21]; 250 g ai/ha): 5; RICE phytotoxicity rating (crop damage) ([22]; 63 g ai/ha): 0; RICE phytotoxicity rating (crop damage) ([22]; 250 g ai/ha): 0
